Usually half-life stands for the time needed for the level to fall by half in the phase considered. Broadly, the CL/F is clearance divided by bioavailability, as obtained after extravascular dosing. One may read the Vd/F as the apparent distribution volume after extravascular dosing. For orientation: Cmax means the peak of the concentration-time curve. The term clearance denotes the volume of plasma or blood freed of the substance per unit of time. Higher therefore signals efficient removal. As usually defined, the Vd is a proportionality between amount in the body and measured concentration, not a real space. A word on the Tmax: it is the time at which the peak concentration occurs. In general, bioavailability refers to dose-corrected exposure relative to a reference, in per cent. A low value points to little systemic uptake.

Like-named read-outs stand apart in the source and are kept apart here.

Results on three compounds are retold here after patent publication US8962553B2, “Method of treating a diabetic subject having a microvascular impairment disorder by a pegylated C-peptide” (Cebix Ab, priority 2011, dated 2015).

For data set [1] the following is noted: in vivo; cited from earlier work.
Data set [2] can be described thus: STZ rat Study #1: animal survival and clinical observations. It counts as in vivo. The note with it: Group 5: 1.5 mg/kg over 24 h by pump, N 10, STZ rats, end of study. As to the method: Male Sprague Dawley rats (Harlan Laboratories, Inc.; Indianapolis, Ind.) weighing approximately 400 g had type 1 diabetes induced on Day 1 by intravenous administration of clinical-grade STZ (Zanosar®; 50 mg/kg in Study #1 and 33 mg/kg in Study #2). On Day 3 (Study #1) or Day 4 (Study #2), blood was collected and K3EDTA plasma was analyzed for endogenous C-peptide levels and animals with C-peptide <0.4 nM were randomized on Day 7 (Study #1) or Day 9 (Study #2) taking into account body weight and blood glucose (criterion in the range 400-600 mg/dL). Randomization was done using Covance's BRAT system.
Insulin (Lantus®, long-acting insulin glargine) was used in both studies and administered subcutaneously in the evening before the start of the 12-hour dark cycle in the animal room (time period when most food consumption takes place). In Study #1, rats were initiated on insulin after there were a number of animal deaths starting early in the study (3 days into the treatment period). All animals were receiving 3 U/day of insulin by the end of the study. […] Additionally to limit dehydration when needed throughout the studies, warm sterile saline (volume determined by veterinarian) was administered to animals, and in particular in Study #2, to animals 24 hours prior to undergoing surgery for pump implantation. […]

A short description of data set [3]: clinical. The note with it: human, in vivo.
Method: (§1) In a single-dose pharmacokinetic study of C-peptide in patients with type 1 diabetes, recombinant human C-peptide was administered subcutaneously at doses of 150 nmol, 600 nmol, 1800 nmol, and intravenously at a dose of 150 nmol with a wash-out period of at least three days.
A short description of data set [4]: Single-dose pharmacokinetic study of C-peptide in patients with type 1 diabetes. The note with it: human, in vivo; for Vd: 0.45 mg (150 nmol) i.v., mean ± SD.
Method: as §1
The conditions of data set [5]: in vivo.
The conditions of data set [6]: cited from earlier work.

Consider Glargine insulin, for which, in data set [1], the duration of activity was 24 h and the “peak time of effect” value is reported as “no peak effect”.
In the case of `CC(C)C[C@H](NC(=O)[C@H](C)NC(=O)[C@H](CC(C)C)NC(=O)[C@@H]1CCCN1C(=O)[C@H](CCC(N)=O)NC(=O)[C@H](CC(C)C)NC(=O)[C@H](CO)NC(=O)CNC(=O)[C@H](C)NC(=O)CNC(=O)[C@@H]1CCCN1C(=O)CNC(=O)CNC(=O)CNC(=O)[C@H](CC(C)C)NC(=O)[C@H](CCC(=O)O)NC(=O)[C@@H](NC(=O)[C@H](CCC(N)=O)NC(=O)CNC(=O)[C@@H](NC(=O)[C@H](CCC(N)=O)NC(=O)[C@H](CC(C)C)NC(=O)[C@H](CC(=O)O)NC(=O)[C@H](CCC(=O)O)NC(=O)[C@H](C)NC(=O)[C@@H](N)CCC(=O)O)C(C)C)C(C)C)C(=O)N[C@@H](CCC(=O)O)C(=O)NCC(=O)N[C@@H](CO)C(=O)N[C@@H](CC(C)C)C(=O)N[C@@H](CCC(N)=O)C(=O)O` [C-peptide], the “Number of Surviving Animals” value in data set [2] was found to be 1. Further, the half-life in data set [3] (iv, 0.45 mg) was 1.13 h; in data set [3] (sc, 0.45 mg), 1.13 ± 0.35 h; in data set [3] (sc, 1.8 mg) it was 1.02 h; in data set [3] (sc, 5.4 mg), 1.13 h; in data set [6] (healthy subjects, range of 24.9-45.3 minutes) it was 0.558 h; in data set [6] (subjects with type 1 diabetes, range of 39.4-48.5 minutes), 0.708 h. Also, the CL/F in data set [3] (sc, 0.45 mg) came to 290 ± 67 mL/min; in data set [3] (sc, 1.8 mg), 270 ± 47 mL/min; in data set [3] (sc, 5.4 mg) it was 250 ± 41 mL/min. The Vd/F stood at 28.3 ± 8.96 L in data set [3] (sc, 0.45 mg); 23.4 ± 5.27 L in data set [3] (sc, 1.8 mg); 24.4 ± 5.47 L in data set [3] (sc, 5.4 mg). In addition, the Cmax in data set [4] (iv, 0.45 mg) amounted to 0.0308 ± 0.00657 µM; in data set [4] (sc, 0.45 mg), 0.0037 ± 0.00104 µM; in data set [4] (sc, 1.8 mg), 0.0143 ± 0.00322 µM; in data set [4] (sc, 5.4 mg), 0.0403 ± 0.00703 µM. This compound also displayed a clearance in data set [4] (iv, 0.45 mg) of 250 ± 46 mL/min. For the same compound, the Vd in data set [4] (iv, 0.45 mg, Vss) was determined as 10.9 ± 1.97 L; in data set [4] (iv, 0.45 mg, Vz), 25.6 ± 7.65 L. In addition, the Tmax is 0.833 h in data set [4] (sc, 0.45 mg); 1.08 h in data set [4] (sc, 1.8 mg); 1.22 h in data set [4] (sc, 5.4 mg). The compound also yielded a bioavailability in data set [4] (sc, 0.45 mg) of 86.9 ± 12.1%. Further, the “dose required to obtain a plasma concentration of 1-3 nM” value in data set [5] came to 10.5 mg/week. The “dose required to obtain a plasma concentration of 1-3 nM for most of the day” value in data set [5] stood at 1.5 mg/day.
On to “Regular insulin: short-acting insulin preparation”, for which the onset of action in data set [1] was 30 to 60 min.
